Where a name gives a salt, the structure may show the parent alone.
How the values were obtained:
Assay type in all cases: biochemical
PIM-1 = PIM-1 (Homo sapiens, UniProt P11309); test: Enzyme PIM-1 Assay ([33P]ATP incorporation into PIM2tide, filter plate); details: averaged IC50; 35 μM ATP, 7.5 μM PIM2tide, 0.25 nM PIM-1, 60 min at 22° C.
In short: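 Radiometric assay: 0.25 nM PIM-1 phosphorylates 7.5 μM PIM2tide with 35 μM [γ-33P]ATP in 20 mM MOPS pH 7.4, 10 mM MgCl2, 1 mM DTT, 0.005% Tween-20, 60 min at 22 °C. Product captured on P81 filters, scintillation counted; 10-point 3-fold curve from 10 μM top, 2% DMSO, IC50 by 4-parameter logistic fit of POC.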

[1] = target: T1, GST-tagged recombinant full-length human Pim-2 (Homo sapiens, UniProt Q9P1W9); test: PIM-2 Assay (as Example A); details: averaged IC50; 4 μM ATP, 1.0 μM PIM2tide, 1.5 nM Pim-2
T1 construct: GST-tagged recombinant full-length human Pim-2; GST
T1 sequence (Q9P1W9 whole entry): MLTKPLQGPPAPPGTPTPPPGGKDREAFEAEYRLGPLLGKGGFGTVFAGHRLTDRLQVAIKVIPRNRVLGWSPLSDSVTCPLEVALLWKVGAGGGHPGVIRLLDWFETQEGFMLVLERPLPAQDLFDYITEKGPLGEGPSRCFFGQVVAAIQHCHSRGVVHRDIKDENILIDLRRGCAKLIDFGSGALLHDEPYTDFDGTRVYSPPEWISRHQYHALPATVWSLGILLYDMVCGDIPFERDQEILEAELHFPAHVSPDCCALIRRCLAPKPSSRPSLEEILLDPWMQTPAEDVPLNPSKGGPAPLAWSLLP
In short: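 Radiometric filter-binding assay: GST-tagged full-length human Pim-2 (1.5 nM) phosphorylates 1.0 μM PIM2tide with 4 μM [γ-33P]ATP for 60 min at 22 °C in pH 7.4 MOPS buffer, 2% DMSO. 10-point 3-fold dilutions from 10 μM top dose; IC50 from 4-parameter fit of percent of control.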

recombinant rat PIM-3 = recombinant rat PIM-3 (Rattus norvegicus, UniProt O70444); test: PIM-3 Assay (as Example A); details: averaged IC50; 30 μM ATP, 3.75 μM PIM2tide, 0.5 nM PIM-3
In short: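 Recombinant rat PIM-3 (0.5 nM) with 3.75 μM PIM2tide and 30 μM [γ-33P]ATP in MOPS pH 7.4 buffer, 60 min at 22 °C; labelled peptide captured on phosphocellulose filters and counted by scintillation. 10-point curve (top dose 10 μM, 2% DMSO); IC50 from 4-parameter fit of percent of control.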

Chain of PIM-1 (P11309 whole entry, species assumed): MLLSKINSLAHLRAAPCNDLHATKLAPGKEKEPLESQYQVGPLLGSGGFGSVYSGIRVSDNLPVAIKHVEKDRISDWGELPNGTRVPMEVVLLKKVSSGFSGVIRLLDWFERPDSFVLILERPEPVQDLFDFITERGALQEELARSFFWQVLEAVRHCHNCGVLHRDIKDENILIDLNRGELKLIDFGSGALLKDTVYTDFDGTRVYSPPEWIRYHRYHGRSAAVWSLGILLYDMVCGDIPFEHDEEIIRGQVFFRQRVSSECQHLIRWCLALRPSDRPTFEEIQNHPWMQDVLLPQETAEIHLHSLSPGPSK

| IC50 (PIM-1) | IC50 [1] | IC50 (recombinant rat PIM-3) | Compound |
| --- | --- | --- | --- |
| 0.38 nM | 138 nM | 0.4 nM | Cc1c(-c2cnn(C)c2C)ccc2ccc(-c3nnc4ccc([C@@H](N5CC[C@H](N)C5)C(F)(F)F)cn34)nc12 [Example 214, (3S)-1-((1R)-1-(3-(7-(1,5-dimethyl-1H-pyrazol-4-yl)-8-methylquinolin-2-yl)-[1,2,4]triazolo[4,3-a]pyridin-6-yl)-2,2,2-trifluoroethyl)pyrrolidin-3-amine dihydrochloride] |
| 0.47 nM | > 1000 nM | 3.1 nM | N[C@H]1CCN([C@H](c2ccc3nnc(-c4ccc5cc(F)c(OC(F)F)cc5n4)n3c2)C(F)(F)F)C1 [Example 215, (S)-1-((R)-1-(3-(7-(difluoromethoxy)-6-fluoroquinolin-2-yl)-[1,2,4]triazolo[4,3-a]pyridin-6-yl)-2,2,2-trifluoroethyl)pyrrolidin-3-amine dihydrochloride] |
| 0.38 nM | 56 nM | 0.8 nM | CC(C)Oc1cc(F)cc2ccc(-c3nnc4ccc([C@H](N5CC[C@](C)(N)C5)C(F)(F)F)cn34)nc12 [Example 216, (S)-3-methyl-1-((S)-2,2,2-trifluoro-1-(3-(6-fluoro-8-isopropoxyquinolin-2-yl)-[1,2,4]triazolo[4,3-a]pyridin-6-yl)ethyl)pyrrolidin-3-amine dihydrochloride] |
| 0.32 nM | 40 nM | 0.4 nM | COc1cccc2ccc(-c3nnc4ccc([C@H](N5CC[C@](C)(N)C5)C(F)(F)F)cn34)nc12 [Example 217, (S)-3-methyl-1-((S)-2,2,2-trifluoro-1-(3-(8-methoxyquinolin-2-yl)-[1,2,4]triazolo[4,3-a]pyridin-6-yl)ethyl)pyrrolidin-3-amine dihydrochloride] |
| 0.26 nM | 33 nM | 0.4 nM | COc1cc(F)cc2ccc(-c3nnc4ccc([C@H](N5CC[C@](C)(N)C5)C(F)(F)F)cn34)nc12 [Example 218, (S)-3-methyl-1-((S)-2,2,2-trifluoro-1-(3-(6-fluoro-8-methoxyquinolin-2-yl)-[1,2,4]triazolo[4,3-a]pyridin-6-yl)ethyl)pyrrolidin-3-amine] |
| 0.26 nM | 253 nM | 1.2 nM | N[C@H]1CCN([C@H](c2ccc3nnc(-c4ccc5cccc(OCCO)c5n4)n3c2)C(F)(F)F)C1 [Example 219, 2-(2-(6-((R)-1-((S)-3-aminopyrrolidin-1-yl)-2,2,2-trifluoroethyl)-[1,2,4]triazolo[4,3-a]pyridin-3-yl)quinolin-8-yloxy)ethanol dihydrochloride] |
| 0.28 nM | 72 nM | 0.4 nM | CCOc1cc2nc(-c3nnc4ccc([C@H](N5CC[C@](C)(N)C5)C(F)(F)F)cn34)ccc2cc1F [Example 220, (S)-1-((S)-1-(3-(7-ethoxy-6-fluoroquinolin-2-yl)-[1,2,4]triazolo[4,3-a]pyridin-6-yl)-2,2,2-trifluoroethyl)-3-methylpyrrolidin-3-amine] |
| 0.41 nM | 128 nM | 1 nM | COC[C@@H](C)Oc1cc(F)cc2ccc(-c3nnc4ccc([C@H](N5CC[C@](C)(N)C5)C(F)(F)F)cn34)nc12 [Example 221, (S)-3-methyl-1-((S)-2,2,2-trifluoro-1-(3-(6-fluoro-8-((R)-1-methoxypropan-2-yloxy)quinolin-2-yl)-[1,2,4]triazolo[4,3-a]pyridin-6-yl)ethyl)pyrrolidin-3-amine dihydrochloride] |
| 0.22 nM | 77 nM | 0.2 nM | Cn1cc(-c2ccc3ccc(-c4nnc5ccc([C@H](N6CC[C@](C)(N)C6)C(F)(F)F)cn45)nc3c2)cn1 [Example 222, (S)-3-methyl-1-((S)-2,2,2-trifluoro-1-(3-(7-(1-methyl-1H-pyrazol-4-yl)quinolin-2-yl)-[1,2,4]triazolo[4,3-a]pyridin-6-yl)ethyl)pyrrolidin-3-amine dihydrochloride] |
| 0.29 nM | 62 nM | 0.3 nM | C[C@]1(N)CCN([C@@H](c2ccc3nnc(-c4ccc5ccc(C6CC6)cc5n4)n3c2)C(F)(F)F)C1 [Example 223, (S)-1-((S)-1-(3-(7-cyclopropylquinolin-2-yl)-[1,2,4]triazolo[4,3-a]pyridin-6-yl)-2,2,2-trifluoroethyl)-3-methylpyrrolidin-3-amine dihydrochloride] |
| 0.36 nM | 94 nM | 0.7 nM | CC(C)(CCO)c1cccc2ccc(-c3nnc4ccc([C@@H](N5CC[C@H](N)C5)C(F)(F)F)cn34)nc12 [Example 224, 3-(2-(6-((R)-1-((S)-3-aminopyrrolidin-1-yl)-2,2,2-trifluoroethyl)-[1,2,4]triazolo[4,3-a]pyridin-3-yl)quinolin-8-yl)-3-methylbutan-1-ol dihydrochloride] |
| 0.27 nM | 139 nM | 1.1 nM | CC(C)(O)c1cccc2ccc(-c3nnc4ccc([C@@H](N5CC[C@H](N)C5)C(F)(F)F)cn34)nc12 [Example 225, 2-(2-(6-((R)-1-((S)-3-aminopyrrolidin-1-yl)-2,2,2-trifluoroethyl)-[1,2,4]triazolo[4,3-a]pyridin-3-yl)quinolin-8-yl)propan-2-ol] |
| 0.27 nM | 235 nM | 0.5 nM | N[C@H]1CCN([C@H](c2ccc3nnc(-c4ccc5cc(F)c(OCC(F)(F)F)cc5n4)n3c2)C(F)(F)F)C1 [Example 226, (S)-1-((R)-2,2,2-trifluoro-1-(3-(6-fluoro-7-(2,2,2-trifluoroethoxy)quinolin-2-yl)-[1,2,4]triazolo[4,3-a]pyridin-6-yl)ethyl)pyrrolidin-3-amine dihydrochloride] |
| 0.48 nM | 453 nM | 2.5 nM | COCCOc1cccc2ccc(-c3nnc4ccc([C@@H](N5CC[C@H](N)C5)C(F)(F)F)cn34)nc12 [Example 227, (S)-1-((R)-2,2,2-trifluoro-1-(3-(8-(2-methoxyethoxy)quinolin-2-yl)-[1,2,4]triazolo[4,3-a]pyridin-6-yl)ethyl)pyrrolidin-3-amine dihydrochloride] |
| 0.79 nM | 916 nM | 3.8 nM | N[C@H]1CCN([C@H](c2ccc3nnc(-c4ccc5cc(F)cc(OC(F)F)c5n4)n3c2)C(F)(F)F)C1 [Example 228, (S)-1-((R)-1-(3-(8-(difluoromethoxy)-6-fluoroquinolin-2-yl)-[1,2,4]triazolo[4,3-a]pyridin-6-yl)-2,2,2-trifluoroethyl)pyrrolidin-3-amine dihydrochloride] |
| 0.13 nM | 55 nM | 0.3 nM | N[C@H]1CCN([C@H](c2ccc3nnc(-c4ccc5cc(F)cc(OCCCO)c5n4)n3c2)C(F)(F)F)C1 [Example 229, 3-(2-(6-((R)-1-((S)-3-aminopyrrolidin-1-yl)-2,2,2-trifluoroethyl)-[1,2,4]triazolo[4,3-a]pyridin-3-yl)-6-fluoroquinolin-8-yloxy)propan-1-ol dihydrochloride] |
| 0.64 nM | 211 nM | 3.2 nM | C[C@H](CO)Oc1cccc2ccc(-c3nnc4ccc([C@@H](N5CC[C@H](NCC6CC6)C5)C(F)(F)F)cn34)nc12 [Example 230, dihydrochloride] |
| 0.88 nM | 429 nM | 3.5 nM | CC(C)N[C@H]1CCN([C@H](c2ccc3nnc(-c4ccc5cccc(O[C@H](C)CO)c5n4)n3c2)C(F)(F)F)C1 [Example 231, dihydrochloride] |

— US8889704B2 (Array BioPharma Inc., priority 2011, dated 2014)
